How the values were obtained:
Assay in all cases: Sub-lethal dose (LC25) of chlorantraniliprole on 2nd instar larvae
Format in all cases: in vivo
Helicoverpa armigera = system: Helicoverpa armigera
Spodoptera litura = system: Spodoptera litura
Spodoptera frugiperda = system: Spodoptera frugiperda

CNC(=O)c1cc(Cl)cc(C)c1NC(=O)c1cc(Br)nn1-c1ncccc1Cl [chlorantraniliprole]
LC25 value (Helicoverpa armigera): 0.015 µg/g | LC25 value (Spodoptera litura): 0.008 µg/g | LC25 value (Spodoptera frugiperda): 0.006 µg/g

From patent US12305162B2, “Method for expanding propagation of Metarhizium rileyi MR006 and use thereof” (priority 2023, dated 2025)
